The test has as its target T1, hNav1.7 channels (Homo sapiens, UniProt Q15858).
T1 construct: host or cells: HEK293
In words: hNav1.7 channel in vitro patch-clamp assay. It counts as cell-based. The note with it: stable HEK293 cell line expressing hNav1.7; whole cell patch-clamp (QPatch HTX and/or conventional), room temperature; voltage protocol not given. As for the experimental part: hNav1.7 Channel In Vitro Patch-Clamp Assay
Cells: Sable HEK293 (human embryonic kidney) cell line expressing hNav1.7 channels was used in the assay. The cell line was obtained from Millipore (Millipore Corporation, MA).
Patch-clamp recordings: The recordings were performed on QPatch HTX (Sophion Bioscience, Denmark) and/or conventional patch-clamp (Axon Multiclamp 700B systems, Molecular Devices, CA) platforms at room temperature, using whole cell patch-clamp techniques. The composition of extracellular solution was (in mM): HEPES 5, NaCl 40, KCl 3, CaCl2 1, MgCl2 1, Choline Chloride 100. Adjust pH to 7.2 with 1N NaOH, osmolarity to 300-310 mOsm with sucrose. The composition of intracellular solution was (in mM): HEPES 10, NaCl 10, Na2ATP 1, MgCl2 2, KF 135, EGTA 10. Adjust pH to 7.2 with 1N NaOH, osmolarity to 290-300 mOsm with sucrose.
For conventional patch-clamp, 35 mm culture dishes containing hNav1.7 cells were placed on the stage of an inverted microscope and continuously perfused with extracellular solution from a perfusion system (Biologic Rapid solution changer, RSC-160, ˜1 ml/min). […] The recordings were controlled by pCLAMP10 software. Test compounds were dissolved in 100% DMSO to make stock solutions for each test concentration, and then diluted into extracellular solution to achieve final concentration for testing. Final DMSO concentration was less than 0.3%. Two voltage protocols were used in hNav1.7 assay: for non-inactivated protocol, the sodium currents were elicited by a 2 ms pulse to −10 mV from a holding potential of −110 mV. For inactivated protocol, the holding potential was set at V1/2. The voltage was firstly stepped to −110 mV for 50 ms, then to −10 mV for 2 ms and then stepped back to holding potential. In both protocols the voltage command was given in every 10 s. Compound effect (% inhibition) was determined by difference in current amplitude before and after the application of test compounds. IC50 values were determined from concentration-response curves that were obtained with Hill fitting.
For QPatch HTX assay, hNav1.7 cells grown to 50%-80% confluence were rinsed with DPBS and dissociated with Tryple (Invitrogen, 12605-010). The dissociated cells were then mixed with extracellular solution. After centrifuge, the cells were resuspended in extracellular solution and used in the QPatch experiment. The whole-cell protocols, voltage protocols and application protocols were established with QPatch Assay Software 3.4 (Sophion Bioscience, Denmark). Only the inactivated protocol was used in the QPatch assay.

The structures appear in SMILES notation.

The term IC50 denotes the point on the concentration scale where inhibition reaches its midpoint. Lower therefore signals greater potency in that assay.

T1 sequence (Q15858 whole entry): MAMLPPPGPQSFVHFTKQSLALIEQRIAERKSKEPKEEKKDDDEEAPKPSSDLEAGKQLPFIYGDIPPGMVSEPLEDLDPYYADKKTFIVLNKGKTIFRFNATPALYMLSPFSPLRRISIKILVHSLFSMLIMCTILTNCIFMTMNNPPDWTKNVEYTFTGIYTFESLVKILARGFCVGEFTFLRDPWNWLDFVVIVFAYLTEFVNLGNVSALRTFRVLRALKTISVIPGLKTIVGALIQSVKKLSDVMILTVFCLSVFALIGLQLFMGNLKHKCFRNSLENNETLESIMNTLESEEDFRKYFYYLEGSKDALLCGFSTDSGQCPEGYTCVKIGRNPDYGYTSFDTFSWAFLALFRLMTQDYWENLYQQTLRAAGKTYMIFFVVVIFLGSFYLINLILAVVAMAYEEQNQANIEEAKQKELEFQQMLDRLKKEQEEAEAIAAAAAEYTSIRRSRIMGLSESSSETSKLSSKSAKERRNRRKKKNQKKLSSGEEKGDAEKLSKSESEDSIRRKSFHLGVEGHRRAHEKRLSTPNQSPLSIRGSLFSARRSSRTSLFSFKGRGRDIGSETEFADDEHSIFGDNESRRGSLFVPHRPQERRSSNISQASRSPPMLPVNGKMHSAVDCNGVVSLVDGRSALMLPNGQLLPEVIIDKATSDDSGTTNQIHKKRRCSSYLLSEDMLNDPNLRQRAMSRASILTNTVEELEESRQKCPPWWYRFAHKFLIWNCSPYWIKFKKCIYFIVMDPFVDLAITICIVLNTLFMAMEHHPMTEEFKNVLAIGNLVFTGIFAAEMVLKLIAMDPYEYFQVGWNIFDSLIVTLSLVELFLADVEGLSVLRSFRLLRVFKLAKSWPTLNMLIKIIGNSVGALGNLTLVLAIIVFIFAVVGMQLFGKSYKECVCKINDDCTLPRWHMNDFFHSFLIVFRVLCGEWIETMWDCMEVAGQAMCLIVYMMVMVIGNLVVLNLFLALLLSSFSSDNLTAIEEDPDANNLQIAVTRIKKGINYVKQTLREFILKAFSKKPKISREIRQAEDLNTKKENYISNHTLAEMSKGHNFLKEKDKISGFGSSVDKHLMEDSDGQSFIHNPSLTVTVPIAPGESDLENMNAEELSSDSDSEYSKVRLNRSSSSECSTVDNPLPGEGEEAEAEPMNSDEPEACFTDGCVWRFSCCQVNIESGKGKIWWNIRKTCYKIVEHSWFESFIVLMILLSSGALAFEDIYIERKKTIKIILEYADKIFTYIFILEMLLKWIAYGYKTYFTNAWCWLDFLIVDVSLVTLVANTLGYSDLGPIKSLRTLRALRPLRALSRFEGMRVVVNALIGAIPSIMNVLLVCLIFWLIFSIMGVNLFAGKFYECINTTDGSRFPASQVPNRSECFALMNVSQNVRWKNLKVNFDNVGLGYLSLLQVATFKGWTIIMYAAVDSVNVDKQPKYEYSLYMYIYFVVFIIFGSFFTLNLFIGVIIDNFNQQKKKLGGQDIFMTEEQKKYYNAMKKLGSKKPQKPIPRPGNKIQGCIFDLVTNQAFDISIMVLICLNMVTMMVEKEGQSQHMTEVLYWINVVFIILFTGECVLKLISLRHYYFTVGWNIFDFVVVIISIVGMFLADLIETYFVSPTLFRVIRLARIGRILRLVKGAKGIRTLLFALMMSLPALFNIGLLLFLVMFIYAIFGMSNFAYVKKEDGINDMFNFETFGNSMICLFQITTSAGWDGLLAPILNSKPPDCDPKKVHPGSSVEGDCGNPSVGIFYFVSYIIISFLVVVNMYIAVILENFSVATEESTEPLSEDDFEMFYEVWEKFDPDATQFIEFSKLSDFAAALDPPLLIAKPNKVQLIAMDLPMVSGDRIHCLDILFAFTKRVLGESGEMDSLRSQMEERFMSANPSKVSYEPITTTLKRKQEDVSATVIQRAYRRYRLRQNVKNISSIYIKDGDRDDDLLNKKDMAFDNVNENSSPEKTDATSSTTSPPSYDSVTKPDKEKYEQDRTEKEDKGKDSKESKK

With `CC(C)COc1ncc(N2C(=O)C3(CCCC3)c3cc4c(NS(=O)(=O)C5CC5)noc4cc32)cc1Cl` [Example 38, N-(7′-(5-chloro-6-isobutoxypyridin-3-yl)-6′-oxo-6′,7′-dihydrospiro[cyclopentane-1,5′-isoxazolo[4,5-f]indol]-3′-yl)cyclopropanesulfonamide], the IC50 was 0.5 µM. This lies in the sub-micromolar range.
Take `CS(=O)(=O)Nc1noc2cc3c(cc12)C1(CC1)C(=O)N3c1ccc(Cl)c(Cl)c1` [Example 31, N-(7′-(3,4-dichlorophenyl)-6′-oxo-6′,7′-dihydrospiro[cyclopropane-1,5′-isoxazolo[4,5-f]indol]-3′-yl)methanesulfonamide]: half-maximal inhibition (IC50) required 0.8 µM.
With `Cc1cn(-c2cnc(OCC(C)C)c(Cl)c2)c2cc3onc(NS(=O)(=O)C4CC4)c3cc12` [Example 42, N-(7-(5-chloro-6-isobutoxypyridin-3-yl)-5-methyl-7H-isoxazolo[4,54]indol-3-yl)cyclopropanesulfonamide] the figure was 0.07 µM.
As for `CC1CCC(COc2ncc(N3C(=O)C4(CC4)c4cc5c(NS(=O)(=O)C6CC6)noc5cc43)cc2Cl)CC1` (stereo not shown) [Example 23, N-(7′-(5-chloro-6-((4-methylcyclohexyl)methoxy)pyridin-3-yl)-6′-oxo-6′,7′-dihydrospiro[cyclopropane-1,5′-isoxazolo[4,5-f]indol]-3′-yl)cyclopropanesulfonamide], the figure is 0.2 µM; as for `CC(C)COc1ncc(-n2cc(C(F)(F)F)c3cc4c(NS(=O)(=O)C5CC5)noc4cc32)cc1Cl` [Example 41, N-(7-(5-chloro-6-isobutoxypyridin-3-yl)-5-(trifluoromethyl)-7H-isoxazolo[4,5-f]indol-3-yl)cyclopropanesulfonamide], 0.05 µM; as for `CC(C)COc1ncc(-n2c(C(F)(F)F)cc3cc4c(NS(C)(=O)=O)noc4cc32)cc1Cl` [Example 40b, N-(7-(5-chloro-6-isobutoxypyridin-3-yl)-6-(trifluoromethyl)-7H-isoxazolo[4,5-f]indol-3-yl)methanesulfonamide], 0.04 µM.
Compound `CC(C)COc1ncc(-c2nccc3cc4c(NS(C)(=O)=O)noc4cc23)cc1Cl` [Example 51, N-(8-(5-chloro-6-isobutoxypyridin-3-yl)isoxazolo[4,5-g]isoquinolin-3-yl)methanesulfonamide] registered a concentration for half-maximal inhibition (IC50) of 0.3 µM.
With `Cc1cnc(-c2cnc(OCC(C)C)c(Cl)c2)c2cc3onc(NS(=O)(=O)C4CC4)c3cc12` [Example 60, N-(8-(5-chloro-6-isobutoxypyridin-3-yl)-5-methylisoxazolo[4,5-g]isoquinolin-3-yl)cyclopropanesulfonamide] the figure was 1.87 µM.
With `CC(C)COc1ncc(-n2cc(C(N)=O)c3cc4c(NS(=O)(=O)C5CC5)noc4cc32)cc1Cl` [Example 49, 7-(5-chloro-6-isobutoxypyridin-3-yl)-3-(cyclopropanesulfonamido)-7H-isoxazolo[4,5-f]indole-5-carboxamide], inhibition was half-maximal at 1.18 µM (IC50).
As for `CC(C)COc1ncc(N2C(=O)C3(CC3)c3cc4c(NS(=O)(=O)C(C)C)noc4cc32)cc1Cl` [Example 3, N-(7′-(5-chloro-6-isobutoxypyridin-3-yl)-6′-oxo-6′,7′-dihydrospiro[cyclopropane-1,5′-isoxazolo[4,5-f]indol]-3′-yl)propane-2-sulfonamide], the figure is 0.1 µM.
Turning to `CC(C)COc1ncc(N2C(=O)C3(CC3)c3cc4c(NS(=O)(=O)C5CC5)noc4cc32)cc1Cl` [Example 2, N-(7′-(5-chloro-6-isobutoxypyridin-3-yl)-6′-oxo-6′,7′-dihydrospiro[cyclopropane-1,5′-isoxazolo[4,5-f]indol]-3′-yl)cyclopropanesulfonamide], half-maximal inhibition (IC50) was put at 0.08 µM.
With `CC(C)COc1ncc(-c2nccc3cc4c(NS(=O)(=O)C5CC5)noc4cc23)cc1Cl` [Example 50, N-(8-(5-chloro-6-isobutoxypyridin-3-yl)isoxazolo[4,5-g]isoquinolin-3-yl)cyclopropanesulfonamide] the figure was 0.11 µM; with `CS(=O)(=O)Nc1noc2cc3c(cc12)C1(CC1)C(=O)N3c1cnc(OCC2CCCCC2)c(Cl)c1` [Example 11, N-(7′-(5-chloro-6-(cyclohexylmethoxy)pyridin-3-yl)-6′-oxo-6′,7′-dihydrospiro[cyclopropane-1,5′-isoxazolo[4,5-f]indol]-3′-yl)methanesulfonamide], 0.1 µM; with `CC(C)COc1ncc(-n2cc(C#N)c3cc4c(NS(=O)(=O)C5CC5)noc4cc32)cc1Cl` [Example 48, N-(7-(5-chloro-6-isobutoxypyridin-3-yl)-5-cyano-7H-isoxazolo[4,54]indol-3-yl)cyclopropanesulfonamide], 0.22 µM.
As for `CC(C)COc1ncc(N2CCOc3cc4c(NS(C)(=O)=O)noc4cc32)cc1Cl` [Example 63, N-(8-(5-chloro-6-isobutoxypyridin-3-yl)-7,8-dihydro-6H-isoxazolo[5′,4′:4,5]benzo[1,2-b][1,4]oxazin-3-yl)methanesulfonamide], the IC50 was 0.53 µM.
As for `CCC(C)Oc1ncc(N2C(=O)C3(CC3)c3cc4c(NS(=O)(=O)C5CC5)noc4cc32)cc1Cl` (stereo not shown) [Example 24, N-(7′-(6-(sec-butoxy)-5-chloropyridin-3-yl)-6′-oxo-6′,7′-dihydrospiro[cyclopropane-1,5′-isoxazolo[4,5-f]indol]-3′-yl)cyclopropanesulfonamide], half-maximal inhibition (IC50) required 0.07 µM.

The values are drawn from patent publication US20150183802A1, “TRICYCLIC SULFONAMIDE DERIVATIVES” (NOVARTIS AG, priority 2013, published 2015).
